Measurements as given in patent US8642801B2 (BHI Limited Partnership, priority 2003, dated 2014).

Assays:
[1] = tested on: amyloid plaques in the brains of TgCRND8 mice; assay: Histological ThioS (thioflavin S) study of brain plaques, long term treatment of TgCRND8 mice; format: in vivo, Mouse; conditions: 30 mg/kg; preliminary histochemical experiments
Experimental: The following abbreviations are used to designate these animals in the present study: TgCRND8.B6AF1/J(N2); TgCRND8.B6AF1/J(N3). Male and female transgenic mice were given daily subcutaneous (compound BX) or oral (compounds BW and BZ) administrations of the appropriate compounds for 8 or 16 weeks.
Starting at 9 weeks of age (±1 week) animals received daily administration of their respective treatment for a period of 8 or 16 weeks, at a dose of 30 or 100 mg/kg at 10 ml/kg. The route of administration was subcutaneous for water-soluble compounds (Compound BX) and oral for compounds solubilized in methylcellulose 1% (MC 1%) (Compounds BW and BZ). At the end of the treatment periods, plasma and perfused brains were collected for quantification of Aβ levels.
For the ThioS studies, the plaques in the brains of the mice were quantified as follows. Mice were transcardially perfused with saline solution. […] Image analysis to quantify the number of plaques and the area occupied by these plaques was performed using Image Pro Plus software (Media Cybernetics, MD, USA). […]
Specifically, increases in the areas and numbers of plaques (relative to vehicle treated control) of 10 to 19.99% are scored as “+”. Decreases in the areas and numbers of plaques of 10 to 19.99% are scored as “−”. Additionally, changes of 9.99% or less in either direction are scored as “0”.

[2] = tested on: Aβ40 and Aβ42 peptides in plasma and brain of TgCRND8 mice; assay: Short term treatment in adult transgenic CRND8 mice overexpressing βAPP: Aβ levels in plasma and brain by ELISA; format: in vivo, Mouse; conditions: after 14 and 28 days of treatment, TgCRND8 mice
How it was run: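 TgCRND8 mice (B6C3F1 backcross, ~11 weeks at treatment start) given short-term treatment; Aβ40 and Aβ42 in plasma and soluble/insoluble brain fractions measured by fluorometric sandwich ELISA (ex 460/em 560 nm). Levels normalized to vehicle (water or methylcellulose) groups and scored as +/− symbols by effect strength.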

CC(C)(C)NCCCS(=O)(=O)O [BX, 3-(t-butyl)amino-1-propanesulfonic acid]
area occupied by the plaques (ThioS staining of brain sections) [1]: decreased
number of plaques (ThioS staining of brain sections) [1]: decreased
levels of Aβ peptides in the plasma [2]: significant increase
